In the NIST ThermoML archive (doi:10.1021/acs.jced.9b00752):

Test: mn = molality of the nth substance listed, in mol/kg
Settings: 100 kPa, Liquid, Vibrating tube method

N[C@@H](Cc1c[nH]c2ccccc12)C(=O)O [L-tryptophan] + O
mass density [kg/m3]
Settings | 278.65 K | 279.15 K | 279.65 K | 280.15 K | 280.65 K | 281.15 K | 281.65 K | 282.15 K | 282.65 K | 283.15 K
m1 = 0.0035 | 1000.16 | 1000.15 | 1000.13 | 1000.11 | 1000.09 | 1000.06 | 1000.02 | 999.99 | 999.95 | 999.908
m1 = 0.009 | 1000.52 | 1000.51 | 1000.49 | 1000.47 | 1000.44 | 1000.41 | 1000.38 | 1000.34 | 1000.3 | 1000.26
m1 = 0.0179 | 1001.09 | 1001.08 | 1001.06 | 1001.03 | 1001.01 | 1000.98 | 1000.94 | 1000.9 | 1000.87 | 1000.82
m1 = 0.0306 | 1001.9 | 1001.88 | 1001.86 | 1001.84 | 1001.81 | 1001.78 | 1001.74 | 1001.71 | 1001.66 | 1001.62
m1 = 0.0352 | 1002.2 | 1002.18 | 1002.16 | 1002.13 | 1002.11 | 1002.07 | 1002.04 | 1002 | 1001.96 | 1001.91
m1 = 0.0429 | 1002.69 | 1002.67 | 1002.65 | 1002.62 | 1002.59 | 1002.56 | 1002.52 | 1002.48 | 1002.44 | 1002.39
m1 = 0.0536 | 1003.37 | 1003.35 | 1003.33 | 1003.3 | 1003.27 | 1003.23 | 1003.2 | 1003.15 | 1003.11 | 1003.06
m1 = 0.0595 | 1003.74 | 1003.72 | 1003.7 | 1003.67 | 1003.64 | 1003.6 | 1003.56 | 1003.52 | 1003.48 | 1003.43
m1 = 0.0659 | 1004.14 | 1004.12 | 1004.09 | 1004.07 | 1004.03 | 1004 | 1003.96 | 1003.92 | 1003.87 | 1003.82
m1 = 0.0769 | 1004.83 | 1004.81 | 1004.78 | 1004.75 | 1004.72 | 1004.68 | 1004.64 | 1004.6 | 1004.56 | 1004.5
